Earlier results on one substance are cited in US20100267730A1, “NOVEL COMPOUNDS” (priority 2008, published 2010).

The subject of one data set is freely-feeding rats. To be noted: central administration, 4 hour time period.
The test system of a further data set is orexin receptors. To be noted: central administration at the onset of the normal sleep period, rat sleep/EEG.

Take “orexin-A: ligand (agonist) of the orexin receptors; human Orexin-A amino acid sequence SEQ ID NO: 1 (EPLPDCCRQKTCSCRLYELLHGAGNHAAGILTL; Homo sapien)”: the “increase in food intake over control rats receiving vehicle” value in the data set with freely-feeding rats is “approximately four-fold”. For the same substance, in the data set on orexin receptors, the effect on arousal result is given as “dose-related increase in arousal”.
